Assay results taken from ChEMBL document CHEMBL1136081, “Structure-activity relationships of novel anti-malarial agents. Part 7: N-(3-benzoyl-4-tolylacetylaminophenyl)-3-(5-aryl-2-furyl)acrylic acid amides with polar moieties” (Bioorg Med Chem Lett, 2003).

Test system: Plasmodium falciparum
Experiment: Inhibition against Plasmodium falciparum Dd2 in erythrocytes in semiautomated micro dilution assay
Format: functional, organism-based

Structure (SMILES): Cc1ccc(CC(=O)Nc2ccc(NC(=O)/C=C/c3ccc(-c4ccc(C(N)=O)cc4)o3)cc2C(=O)c2ccccc2)cc1
- IC50: 560 nM

Structure (SMILES): Cc1ccc(CC(=O)Nc2ccc(NC(=O)/C=C/c3ccc(-c4ccc(C(F)(F)F)cc4)o3)cc2C(=O)c2ccccc2)cc1
- IC50: 77 nM

Structure (SMILES): CCS(=O)(=O)c1ccc(-c2ccc(/C=C/C(=O)Nc3ccc(NC(=O)Cc4ccc(C)cc4)c(C(=O)c4ccccc4)c3)o2)cc1
- IC50: 60 nM

Structure (SMILES): Cc1ccc(CC(=O)Nc2ccc(NC(=O)/C=C/c3ccc(-c4ccc(S(N)(=O)=O)cc4)o3)cc2C(=O)c2ccccc2)cc1
- IC50: 200 nM

Structure (SMILES): Cc1ccc(CC(=O)Nc2ccc(NC(=O)/C=C/c3ccc(-c4ccc(NC=O)cc4)o3)cc2C(=O)c2ccccc2)cc1
- IC50: 280 nM

Structure (SMILES): Cc1ccc(CC(=O)Nc2ccc(NC(=O)/C=C/c3ccc(-c4ccc(C#N)cc4)o3)cc2C(=O)c2ccccc2)cc1
- IC50: 220 nM

Structure (SMILES): CC(=O)c1ccc(-c2ccc(/C=C/C(=O)Nc3ccc(NC(=O)Cc4ccc(C)cc4)c(C(=O)c4ccccc4)c3)o2)cc1
- IC50: 67 nM

Structure (SMILES): Cc1ccc(CC(=O)Nc2ccc(NC(=O)/C=C/c3ccc(-c4ccc(N)cc4)o3)cc2C(=O)c2ccccc2)cc1
- IC50: 260 nM

Structure (SMILES): Cc1ccc(CC(=O)Nc2ccc(NC(=O)/C=C/c3ccc(-c4ccc(S(C)(=O)=O)cc4)o3)cc2C(=O)c2ccccc2)cc1
- IC50: 37 nM

Structure (SMILES): COC(=O)c1ccc(-c2ccc(/C=C/C(=O)Nc3ccc(NC(=O)Cc4ccc(C)cc4)c(C(=O)c4ccccc4)c3)o2)cc1
- IC50: 170 nM

Structure (SMILES): CC(=O)Nc1ccc(-c2ccc(/C=C/C(=O)Nc3ccc(NC(=O)Cc4ccc(C)cc4)c(C(=O)c4ccccc4)c3)o2)cc1
- IC50: 560 nM
